Source: US20240261302A1, “METHODS OF TREATING NEURODEGENERATIVE DISEASES OR CONDITIONS” (FloraScience Inc., priority 2023, published 2024)

Experiments:
BV2 microglia = assay: Mitochondrial Membrane Potential Assay (JC-10) in BV2 cells; format: cell-based; details: 4 hr
Description: BV2 microglial cells were cultured in low glucose DMEM supplemented with GlutaMAX (Invitrogen, Cat #10567014, Carlsbad, CA), 1 mM sodium pyruvate, 10% FBS, and 1% antibiotics including penicillin and streptomycin. Cell cultures were incubated at 37° C. in a fully humidified atmosphere containing 10% CO2.
(§1) Mitochondrial Membrane Potential Assay. Cells seeded at 5,000 cells/well onto 96-well black walled plates were treated with test compounds at the desired concentrations under the culture condition described above. The mitochondrial uncoupler FCCP at 2 μM was used as a reference control. After the desired treatments for 4 hr, the cells were subjected to a JC-10 mitochondrial membrane potential assay according to the manufacturer's instruction. Fluorescence intensities (Ex/Em=490/525 nm, and Ex/Em=540/590 nm) of each well were monitored on a SpectraMax M5 microplate reader. The ratio of fluorescence intensity (590/525 nm) was used to determine the mitochondrial membrane potential (ΔΨm). Decreasing ratios indicate mitochondrial membrane depolarization. Samples were analyzed in eight to sixteen wells per independent experiment (n=8-16). Results were verified by live-cell imaging under a fluorescence microscope.

HT22 cells [1] = assay: Calcium Measurements (Fluo-4 AM, Rhod-2 AM); format: cell-based, mouse
Description: Calcium Measurements. HT22 cells were seeded onto 96-well black walled plates at a density of 5,000 cells/well in DMEM supplemented with 10% FBS and 1% antibiotics. After the desired treatments, Ca^2+ levels were detected with Fluo-4 AM (Ex/Em=494/516 nm) and Rhod-2 AM (Ex/Em=552/581 nm) calcium indicator dyes specific to cytosol and mitochondria, respectively. Fluorescence was measured on a SpectraMax M5 microplate reader. Experiments were performed according to the manufacturer's instructions. Data were normalized for total protein/well. Each condition was analyzed in sixteen wells per independent experiment (n=16). Results were presented as the percentage of the controls with vehicle alone. Results were verified by live-cell imaging under a fluorescence microscope.

HT22 cells [2] = assay: Cellular Lipid Peroxidation Measurement (C11-BODIPY); format: cell-based, mouse
Description: Lipid Peroxidation MeasurementsHT22 cells were seeded onto 96-well black walled plates at a density of 3,000 cells/well in DMEM supplemented with 10% FBS and 1% antibiotics. After the desired treatments, cells were labeled with 2.5 μM C11-BODIPY 581/591 (oxidized form Ex/Em=488/520 nm) at 37° C. for 2 hr. Experiments were performed according to the manufacturer's instructions. Fluorescence was measured on a SpectraMax M5 microplate reader. Data were normalized for total protein/well. Each condition was analyzed in twelve wells per independent experiment (n=12). Results were presented as the percentage of the controls with vehicle alone. Results were verified by live-cell imaging under a fluorescence microscope.

HT22 cells [3] = assay: Mitochondrial Membrane Potential Assay (JC-10) in HT22 cells; format: cell-based, mouse; details: 5 μM, 4 hr, p<0.0001
Description: as §1

primary cortical neurons = assay: Neuroprotection against RSL3 in primary neurons; format: cell-based, rat; details: CBN 10 μM, data not shown
Description: Embryonic Cortical Neuron Extraction. Primary cortical neurons were prepared from embryonic day 17 Sprague-Dawley rat pups and used at 7 days in vitro as previously described (7 DIV). Neurons were dissociated from the cortex and maintained in Neurobasal-A medium (Invitrogen, Cat #10888022, Carlsbad, CA) supplemented with B-27 Supplement (Invitrogen, Cat #17504044, Carlsbad, CA), 2 mM glutamine, and 1% antibiotics including penicillin and streptomycin. Cell cultures were incubated at 37° C. in a fully humidified atmosphere containing 10% CO2. All animal procedures were approved by the Salk Institute's Institutional Animal Care and Use Committee.

HT22 cells [4] = assay: Cytotoxicity assessment of CBN in HT22 cells; format: cell-based, mouse
Description: FIGS. 2A-2I show CBN inhibits oxytosis/ferroptosis in HT22 cells. Representative micrographs of HT22 cells following treatment for 16 h: (FIG. 2A) 0.2% ethanol treatment as vehicle control, (FIG. 2B) 5 μM CBN treatment, (FIG. 2C) 5 mM glutamate treatment, (FIG. 2D) 50 nM RSL3 treatment, (FIG. 2E) 5 μM CBN pretreatment for 1 h followed by 5 mM glutamate treatment, (FIG. 2F) 5 μM CBN pretreatment for 1 h followed by 50 nM RSL3 treatment. Micrographs show the representative morphological characteristics of the cell cultures under a given condition of 16 experimental replicates. Scale bar=100 μm. (FIG. 2G) Cells were pretreated with varying concentrations of CBN for 1 h followed by 5 mM glutamate treatment and incubation for 16 h. (FIG. 2H) Cells were pretreated with varying concentrations of CBN for 1 h followed by 50 nM RSL3 treatment and incubation for 16 h. The results are presented as the percentage of the neuroprotective activity relative to control (100%) and Glu/RSL3 (0%). The neuroprotection curves were analyzed by four-parameter regression. (FIG. 2I) Cytotoxicity assessment of CBN in HT22 cells. Cells were treated with increasing concentrations of CBN or 0.2% ethanol vehicle and incubated for 16 h. Data are the mean of 8-16 replicates per condition±SD.

HT22 cells [5] = assay: MitoTracker Assay (mitochondrial mass); format: cell-based, mouse
Description: MitoTracker Assay. HT22 cells were seeded onto 96-well black walled plates at a density of 5,000 cells/well in DMEM supplemented with 10% FBS and 1% antibiotics. After the desired treatments, MitoTracker Orange CM−H2TMRos (Ex/Em=554/576 nm) and Hoechst 33342 (Ex/Em=360/460 nm) dyes were added to the cells and incubated under the same culture condition for 2 hr. Fluorescence was measured on a SpectraMax M5 microplate reader. Experiments were performed according to the manufacturer's instructions. Data were normalized for total protein/well. Each condition was analyzed in sixteen wells per independent experiment (n=16). Results were presented as the percentage of the controls with vehicle alone. Results were verified by live-cell imaging under a fluorescence microscope.

## CCCCCc1cc(O)c2c(c1)OC(C)(C)c1ccc(C)cc1-2 [CBN, 6,6,9-Trimethyl-3-pentyl-benzo[c]chromen-1-ol]
BV2 microglia
  decrease of ΔΨm: also observed
HT22 cells [1]; 5 μM, 16 hr
  Ca^2+ in cytosol and mitochondria, compound alone: did not affect Ca^2+ influx
HT22 cells [1]; pretreatment 1 hr, co-incubation with RSL3
  Ca^2+ levels in cytosol and mitochondria with RSL3: maintained basal Ca^2+ levels
HT22 cells [2]; 50 nM RSL3, 16 hr, p<0.0001
  RSL3-induced cellular lipid peroxidation: effectively suppressed
HT22 cells [2]; CBN 5 μM, ferrostatin 10 μM, 16 hr
  basal cellular lipid peroxidation, compound alone: neither CBN (5 μM) nor ferrostatin (10 μM) alone changed basal levels of lipid peroxidation
HT22 cells [3]
  decrease of mitochondrial membrane potential (ΔΨm): approximately 17%
Primary cortical neurons
  neuroprotection against 50 nM RSL3: ~100%
HT22 cells [4]; 5 μM, 16 hr, microscopic imaging
  cellular morphology, compound alone: did not induce visual changes in cellular morphology
HT22 cells [4]; HT22 cells, 16 h
  concentrations at which cytotoxicity was noted: ≥ 500 µM
  dose up to which no apparent cytotoxicity was observed: ≤ 200 µM
HT22 cells [5]; 5 μM, 16 hr, vs control group
  increase of MitoTracker fluorescence (mitochondrial mass): 4.9%
HT22 cells [5]; RSL3-induced oxytosis/ferroptosis
  mitochondrial mass with RSL3: preserve the mitochondrial mass at the control level
